How the values were obtained:
[1] = H2S absorption by iron oxalate at low concentrations of H2S, GGT analysis (Example 3); conditions: low H2S concentration, 200 mg iron oxalate in 15 ml mud, 1.5 ml solution D
Description: Measurements at low concentrations of H2S were also carried out.
From this mixture a new sample of 1 ml mud was taken out with a syringe and mixed with 20 ml of water and analysed in GGT (Garret Gas Train) whereby the mixture was stirred with a magnetic stirrer.

[2] = H2S absorption by iron oxalate in oil based mud (interdrill 1.62), GGT analysis (Example 2); conditions: 400 mg iron oxalate in 15 ml interdrill 1.62 oil based mud, water phase pH 12.5, 1.5 ml solution D
Description: In A, B and C iron oxalate was added.
The jar containing the mixture was then shaken. From this mixture a new sample of 1 ml mud was taken out with a syringe. This new sample consisting of 1 ml mud was mixed with 20 ml of water and further analysed in GGT (Garret Gas Train) whereby the mixture was stirred with a magnetic stirrer.
The mud which was used in example 2 was of the type interdrill 1.62 (density of the mud), wherein the pH value in the water phase is 12.5.

Question: For `O=C([O-])C(=O)[O-].[Fe+2]` [iron oxalate, iron(II) oxalate], which “Amount of remaining H2S in the mud sample measured by GGT analysis” value (“Amount of remaining H2S” below) ([1]; ageing 1 hour) is on record?
Answer: 8.5 ppm

Question: What about the “Amount of remaining H2S” value ([1]; ageing 18 hours) of the same compound?
Answer: 0 ppm

Question: What about the “Amount of remaining H2S” value ([1]; ageing 25 hours) of the same compound?
Answer: 0 ppm

Question: What about the “Amount of remaining H2S” value ([2]; ageing 17 hours) of the same compound?
Answer: 51 ppm

Question: And the “Amount of remaining H2S” value ([2]; ageing 40 hours)?
Answer: 34 ppm

Question: And the “Amount of remaining H2S” value ([2]; ageing 64 hours)?
Answer: 57 ppm
